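Results reflect a 48-hour exposure of cells in 96-well plates to compound at five concentrations. GI50 marks 50% less growth.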 Active and inactive are the calls of the source. Rule as the data show it: active = GI50 up to about 1.1 µM and inactive = higher.
What was measured:
Assay in all cases: NCI anticancer screen, dose series, 48 h
[1] = system: UACC-257
[2] = system: CCRF-CEM
[3] = system: A549
[4] = system: U-251
[5] = system: SF-539
[6] = system: DU-145
[7] = system: 786-0
[8] = system: MDA-MB-435
[9] = system: HCT-116
[10] = system: SR
[11] = system: OVCAR-3
[12] = system: SNB-19
[13] = system: NCI-H460
[14] = system: M14
[15] = system: SW-620
[16] = system: TK-10
[17] = system: KM12
[18] = system: NCI-H226
[19] = system: Malme-3M
[20] = system: CAKI-1

Measured: GI50

SCc1ccc(CS)s1
inactive: [1] > 100 µM | [2] > 100 µM | [3] > 100 µM | [4] > 100 µM | [5] > 100 µM | [6] > 100 µM | [7] > 100 µM | [8] > 100 µM | [9] > 100 µM | [10] > 100 µM | [11] > 100 µM | [12] > 100 µM | [13] > 100 µM | [14] > 100 µM | [15] > 100 µM | [16] > 100 µM | [17] > 100 µM

CC(C)(C)N1CC2(CCCCC2)C1=O
inactive: [1] > 100 µM | [18] > 100 µM | [2] > 100 µM | [3] > 100 µM | [4] > 100 µM | [5] > 100 µM | [7] > 100 µM | [19] > 100 µM | [9] > 100 µM | [10] > 100 µM | [11] > 100 µM | [12] > 100 µM | [13] > 100 µM | [14] > 100 µM | [15] > 100 µM | [20] > 100 µM | [16] > 100 µM | [17] > 100 µM

COc1ccc(-n2cnc3c(N)nc(N)nc32)cc1
inactive: [1] > 100 µM | [18] > 100 µM | [2] 25.4 µM | [3] 93.3 µM | [4] > 100 µM | [5] 49.5 µM | [6] > 100 µM | [7] > 100 µM | [19] > 100 µM | [8] > 100 µM | [9] > 100 µM | [11] > 100 µM | [12] > 100 µM | [14] > 100 µM | [15] > 100 µM | [20] 76.7 µM | [16] 85.7 µM | [17] 29.1 µM

C1CC2CN(CCCN3CCOCC3)C(C1)O2 (stereo not given)
inactive: [1] > 100 µM | [18] > 100 µM | [3] > 100 µM | [4] > 100 µM | [5] > 100 µM | [6] > 100 µM | [7] > 100 µM | [19] > 100 µM | [8] > 100 µM | [9] > 100 µM | [11] > 100 µM | [12] > 100 µM | [13] > 100 µM | [14] > 100 µM | [15] > 100 µM | [20] > 100 µM | [16] > 100 µM | [17] > 100 µM

CCN1CSC(=S)N(CC)C1
inactive: [1] > 100 µM | [18] > 100 µM | [2] 71.6 µM | [3] > 100 µM | [4] 50.8 µM | [5] 27.7 µM | [6] > 100 µM | [7] 28.6 µM | [19] 52.7 µM | [8] 46.8 µM | [9] 41.3 µM | [11] 37.8 µM | [12] > 100 µM | [13] 56.2 µM | [14] 50.6 µM | [15] 36.6 µM | [16] > 100 µM | [17] 98.2 µM

O=C1CCCC(=O)N1n1c(Cc2ccc(Cl)cc2)n[nH]c1=O
inactive: [1] > 100 µM | [18] > 100 µM | [2] > 100 µM | [3] > 100 µM | [4] > 100 µM | [5] > 100 µM | [6] > 100 µM | [7] > 100 µM | [19] > 100 µM | [8] > 100 µM | [9] > 100 µM | [11] > 100 µM | [12] > 100 µM | [13] > 100 µM | [14] > 100 µM | [15] > 100 µM | [20] > 100 µM | [16] > 100 µM | [17] > 100 µM

CNC(=O)N1N[C@H](c2ccccc2)[C@@H]1c1ccccc1.OB(O)O
inactive: [1] 35.9 µM | [18] 16.7 µM | [2] 32.4 µM | [3] 28.4 µM | [4] 20 µM | [5] 17.9 µM | [7] 32.4 µM | [19] 19.7 µM | [9] 17.9 µM | [10] 18.4 µM | [11] 17 µM | [12] 46.1 µM | [13] 21.8 µM | [14] 21.9 µM | [15] 28.4 µM | [20] 32.7 µM | [16] 40.4 µM | [17] 17 µM

Nc1nc(CCC(=O)Nc2cccc(C(F)(F)F)c2)cc(-c2cccc3ccccc23)n1
inactive: [1] > 100 µM | [18] > 100 µM | [2] > 100 µM | [3] > 100 µM | [4] > 100 µM | [5] > 100 µM | [7] > 100 µM | [19] > 100 µM | [9] > 100 µM | [10] > 100 µM | [11] > 100 µM | [12] > 100 µM | [13] > 100 µM | [14] > 100 µM | [15] > 100 µM | [20] > 100 µM | [16] > 100 µM | [17] > 100 µM

O=C(OCc1ccc([N+](=O)[O-])cc1)N1c2ccccc2[C@@]23O[C@]24CCC[C@H]3C#C/C=C\C#C[C@H]14
inactive: [1] > 100 µM | [18] > 100 µM | [2] 12.9 µM | [3] 8.77 µM | [4] > 100 µM | [5] > 100 µM | [6] > 100 µM | [7] > 100 µM | [19] 19.6 µM | [8] > 100 µM | [9] > 100 µM | [11] > 100 µM | [12] > 100 µM | [13] 1.17 µM | [14] > 100 µM | [15] 72.9 µM | [20] 37.4 µM | [16] > 100 µM | [17] > 100 µM

C/C(=N\c1ccc(N(C)C)cc1)c1ccccc1
inactive: [1] > 10 µM | [18] 76.2 µM | [2] 17.7 µM | [3] 27.9 µM | [4] 22.5 µM | [5] 56 µM | [6] 34.9 µM | [7] 19.8 µM | [19] 10.9 µM | [9] 16.9 µM | [10] 19.2 µM | [11] 17.8 µM | [12] 86.3 µM | [13] 81.1 µM | [14] 16.3 µM | [15] 17.9 µM | [20] 19.8 µM | [16] 20.8 µM | [17] 31.8 µM

O=C(/C=C\c1ccc(Cl)c(Cl)c1)c1ccc(Cl)cc1Cl
inactive: [1] 19.9 µM | [18] 9.51 µM | [2] 4.1 µM | [3] 22.6 µM | [4] 11.9 µM | [5] 20 µM | [7] 17.4 µM | [19] 17.9 µM | [9] 9.14 µM | [10] 3.09 µM | [11] 18.2 µM | [12] 12.4 µM | [13] 23.3 µM | [14] 21.9 µM | [15] 2.69 µM | [20] 27.3 µM | [16] > 10 µM | [17] 8.38 µM

From ChEMBL document CHEMBL1201862, “PubChem BioAssay data set” (2004)
